Experimental data reported in patent publication EP0855387A1, “2-ACYLAMINOBENZAMIDE DERIVATIVES AND PREVENTIVE AND REMEDY FOR DISEASES CAUSED BY THE SUPERMULTIPLICATION OF VASCULAR INTIMAL CELLS” (KISSEI PHARMACEUTICAL CO., LTD., priority 1995, dated 1997).
pIC50: −log10 of the molar value. Read-outs that look alike come from different tables or passages of the source.

Tests used:
[1] = tested on: Spontaneous hypertensive rat-derived vascular smooth muscle cells (VSMCs) in thoracic aorta; assay: Inhibition test on vascular smooth muscle cells proliferation (3H-thymidine incorporation); format: cell-based; conditions: Rattus norvegicus, VSMC
Protocol: Thus, the compounds of the present invention have a very potent inhibitory effect on vascular smooth muscle cells proliferation.
Spontaneous hypertensive rat-derived vascular smooth muscle cells (VSMCs) in thoracic aorta were isolated by explant technique. The VSMCs were placed into 96 wells at 5000 cells/well and incubated in DMEM containing 10 % fetal calf serum at 37 °C in 95 % air and 5 % carbon dioxide for 3 days. After the incubation, the medium was replaced with DMEM containing each compound and ^3H-thymidine, and then the VSMCs were incubated. 24 hours later, the incorporation of ^3H-thymidine into DNA was determined and the radioactivity was defined as proliferation inhibitory activity of VSMCs. The activity of each compound was shown as a concentration which reduced the radioactivity of non-treated group by 50 % (IC50).

[2] = tested on: thrombosis-induced neointimal hyperplasia in mouse femoral artery; assay: Inhibition test on neointimal hyperplasia (thrombosis-induced model); format: in vivo; conditions: oral, once a day for 3 weeks; dose reducing the neointimal area of the non-treated group by 50 %
Protocol: The effect of compounds in vivo was evaluated by using a model of thrombosis-induced neointimal hyperplasia in mouse femoral artery. Each compound was suspended in 0.5 % carboxymethylcellulose sodium solution and administered orally to mice once a day for 3 weeks. After final administration, the femoral artery was fixed and removed. Cross sections of vessels were made consecutively and the neointimal area induced and formed by thrombosis was measured. Inhibitory activity on neointimal hyperplasia of each compound was shown as a dose which reduced the area of the non-treated group by 50 % (ID50).

[3] = Acute toxicity test; format: in vivo; conditions: single oral administration, dose of 2000mg/kg; for death (dead mice): 2000 mg/kg
Protocol: The compounds represented by the general formula (I) of the present invention have an LD50 value extremely preferable to that of Tranilast and therefore are very safer compounds.
Male ICR nice were fasted for 4 hours. 2-(3,4-Dimethoxycinnamoylamino)benzamide was suspended in 0.5 % carboxymethylcellulose sodium and administered orally at doses of 300, 1000 and 2000mg/kg, respectively. Dead mice and abnormal behavior were not observed even in the group administered at a dose of 2000mg/kg.

[4] = tested on: restenosis after PTCA surgery; conditions: patients after PTCA surgery; incidence without the drug about 30-40%; cited from earlier work
[5] = 3H-thymidine incorporation into DNA, 24 hours incubation with compound, read-out: Concentration of 50% inhibitory activity (IC50)

CCOc1ccc(/C=C/C(=O)Nc2ccccc2C(N)=O)cc1OC [Compound 17, (E)-2-(4-Ethoxy-3-methoxycinnamoylamino)benzamide]
pIC50 [1, 5]: 5.30
Dose of 50% inhibitory activity (ID50) [2]: 1 mg/kg

CCOc1ccc(/C=C/C(=O)Nc2cc(OC)c(OC)cc2C(=O)NCCO)cc1OC [Compound 61, (E)-4,5-Dimethoxy-2-(4-ethoxy-3-methoxycinnamoylamino)-N-(2-hydroxyethyl)benzamide]
pIC50 [1, 5]: 4.35

COc1ccc(/C=C/C(=O)Nc2ccccc2C(N)=O)cc1OC [Compound 4, (E)-2-(3,4-Dimethoxycinnamoylamino)benzamide]
pIC50 [1, 5]: 4.57
Dose of 50% inhibitory activity (ID50) [2]: 1 mg/kg
abnormal behavior ([3]; mice): not observed
death (dead mice) ([3]; listed as 2-(3,4-Dimethoxycinnamoylamino)benzamide): not observed
death (dead mice) ([3]; listed as 2-(3,4-dimethoxycinnamoylamino)benzamide): no death was observed

COc1cc(/C=C/C(=O)Nc2ccccc2C(N)=O)cc(OC)c1 [Compound 32, (E)-2-(3,5-Dimethoxycinnamoylamino)benzamide]
pIC50 [1, 5]: 4.10

COc1ccc(C=CC(=O)Nc2ccccc2C(=O)O)cc1OC [Tranilast, 2-(3,4-dimethoxycinnamoylamino)benzoic acid, reference compound]
pIC50 ([1]; in vitro, read-out: concentration exhibiting a 50% inhibitory activity on vascular smooth muscle cells proliferation): 3.64
restenosis observed when administering after PTCA surgery [4]: 10-15%
Dose of 50% inhibitory activity (ID50) [2]: 100 mg/kg

NC(=O)c1ccccc1NC(=O)/C=C/c1cccc(OCc2ccccc2)c1 [Compound 6, (E)-2-(3-Benzyloxycinnamoylamino)benzamide]
pIC50 [1, 5]: 5.05

COc1ccc(/C=C/C(=O)Nc2ccccc2C(N)=O)c(OC)c1OC [Compound 31, (E)-2-(2,3,4-Trimethoxycinnamoylamino)benzamide]
pIC50 [1, 5]: 4.27
